Test results taken from patent US9757432B2, “Materials and methods useful for treating glioblastorna” (Ohio State Innovation Foundation, priority 2012, dated 2017).
Residues, ends and D or L forms follow the SMILES beside them. *: point of attachment. Cbz = O=C(OCc1ccccc1)*; CH2F = FC*

tested on: glioma cells; assay: Rescue of SapC-DOPS-induced killing by pathway inhibitors; assay type: cell-based; details: inhibitor given with SapC-DOPS
Text: Synergy analysis was completed using CompuSyn software.

| Compound | rescue of SapC-DOPS-induced killing |
| --- | --- |
| Cn1cnc(N)c2ncnc1-2 [3-methyladeneine] | significant rescue |
| COC(=O)C[C@H](NC(=O)[C@H](C)NC(=O)[C@@H](NC(=O)OCc1ccccc1)C(C)C)C(=O)CF [Z-VAD-FMK] (Cbz-Val-Ala-Asp(OMe)-CH2F) | did not rescue |
| CO/C1=C\C(C)=C\[C@@H](C)[C@@H](O)[C@@H](C)C/C(C)=C/C=C/[C@H](OC)[C@@H]([C@@H](C)[C@@H](O)[C@H](C)[C@@]2(O)C[C@@H](O)[C@H](C)[C@@H](C(C)C)O2)OC1=O [bafilomycin Al] | significant rescue |
